Data set [1] is described as follows: Baclofen solubilization study in multivalent physiologic ion (MPI) solution. The class given is physicochemical. The note with it: aqueous buffer, thermodynamic from solid. As for the experimental part:
Multivalent physiologic ion solution formation. A solution (A) is produced with 8.66 g NaCl, 0.224 g KCl, 0.206 g CaCl2.2H2O and 0.163 g MgCl2.6H2O dissolving in 500 mL of deionized water. A solution (B) is produced with 0.214 g Na2HPO4.7H2O and 0.027 g NaH2PO4.H2O dissolving in 450 mL of water. The pH is adjusted to 6.0, 6.5, 7.0, 7.3, 7.6 and 8.0 as necessary with either NaOH or H3PO4 and dilution to final volume of 500 mL with deionized water. A final multivalent physiologic ion solution is obtained by mixing equal parts of Solution A and B. pH is tested and adjusted to the desired final pH if necessary. All reagents are available from sources known in the art. […]
Baclofen solubilization study in multivalent physiologic ion solution. […] The aliquots are analyzed by high performance liquid chromatography (HPLC). […] Baclofen concentrations above 4 mg/ml are readily achieved.
Analyses of baclofen solutions to confirm concentrations. Baclofen concentrations of Examples 2 and 3 are determined to confirm soluble levels in MPI or aCSF in the inventive solutions. Baclofen concentrations are quantified by LC/MS/MS using an Applied Biosystems API 400 electrospray triple quadrupole mass spectrometer. […] The transition between 214.1 and 151.2 is used for quantification. […]
Analyses of baclofen solutions to confirm concentrations. […] Baclofen concentrations are determined within 10% of expected values.

For data set [2] the following is noted: over a 10-year period, near neutral pH, room temperature; calculated, Ahuja 1985; cited from earlier work.
The conditions of data set [3]: cited from earlier work.
Where [4] appears, read: LIORESAL INTRATHECAL product insert.

Values after ≈ are worked out from the molar mass of the structure shown. Read-outs that look alike come from different tables or passages of the source. Bounds are passed on as bounds.

Consider `NCC(CC(=O)O)c1ccc(Cl)cc1` (stereo not shown) [Baclofen], for which the solubility in data set [1] (MPI pH 6.0-8.0, 37° C., aliquots at 2, 5 and 30 min, HPLC, read-out: baclofen concentration achieved in MPI solution) is over 4000 µg/mL. Also, the solubility in data set [1] (rapidly achieved without sonication or excessive agitation, read-out: solubility of baclofen in MPI solution) came out at 6000 µg/mL (≈ 28.1 mM). For the same compound, the “degradation of dissolved baclofen” value in data set [2] is “less than 10%”. In data set [3] (setting [4]), the solubility in chloroform result is given as “insoluble”, the solubility in methanol entry is recorded as “very slightly soluble” and the solubility in water result is given as “slightly soluble”. In addition, in data set [3] (heating to as much as 100° C., sonication or high speed stirring, US 2006/0009523), the “solubility in aqueous saline solution after extreme heating and intense agitation” value was at most 12000 µg/mL. In data set [3] (initial dissolution at pH below 3.87, then base added, US 2006/0009523), the “baclofen concentration by acid dissolution and back titration method” value is about 10 mg/mL. In addition, in data set [3] (saline), the maximum saline concentration is given as 2 mg/mL. In data set [3] (water or saline), the “solubility in water or saline (known in the art)” value is “below 2 mg/mL”.

Values taken from patent US9655968B2, “Baclofen solution for low-volume therapeutic delivery” (Wayne State University, priority 2007, dated 2017).
